“Also recorded” adds a separate entry of the source.
Key:
[1] = Light sensitivity of GDC-0077 (INAVOLISIB); assay type: physicochemical
mutant PI3Kα = conditions: role: inhibitor; relative to non-mutant PI3Kα; cited from earlier work
PI3Kα isoform = conditions: role: inhibitor; relative to PI3 KB, PI3K8 and PI3Ky isoforms; cited from earlier work

Which results are given for C[C@H](Nc1ccc2c(c1)OCCn1cc(N3C(=O)OC[C@H]3C(F)F)nc1-2)C(N)=O [GDC-0077 (INAVOLISIB), (S)-2-((2-((S)-4-(difluoromethyl)-2-oxooxazolidin-3-yl)-5,6-dihydrobenzo[f]imidazo[1,2-d][1,4]oxazepin-9-yl)amino)propanamide]?
Light sensitivity (in words) [1]: degrades under light stress conditions; also recorded: sensitive to light; Selectivity for mutant PI3Kα (in words) (mutant PI3Kα): selective for mutant PI3Kα expressing tumors relative to non-mutant PI3Kα expressing cells; also recorded: selective activity in modulating mutant forms of the PI3Kα (alpha) isoform; Selectivity for PI3Kα isoform (in words) (PI3Kα isoform): selectively inhibits the PI3Kα isoform relative to the PI3 KB, PI3K8, and PI3Ky isoforms

Source: patent US20260335335A1, “PHARMACEUTICAL FORMULATION COMPRISING A COATED TABLET” (Genentech, Inc., priority 2023, published 2026)
